Data on 26 molecules can be found in patent publication US11008572B2, “Methods and compositions for modulating splicing” (SKYHAWK THERAPEUTICS, INC., priority 2017, dated 2021).

The first assay deals with A-673 cells. Briefly: Cell viability, crystal violet staining. In kind it is cell-based. As to conditions: Homo sapiens, A673, cell viability, read-out: A-673 IC50 (nM) Cell viability. As for the experimental part: To measure cell viability, cells were plated in 96-well plastic tissue culture plates at a density of 5×10^3 cells/well. Twenty-four hours after plating, cells were treated with various SMSMs. After 72 hours, the cell culture media were removed and plates were stained with […] of a solution containing 0.5% crystal violet and 25% methanol, rinsed with deionized water, dried overnight, and resuspended in […] citrate buffer (0.1 M sodium citrate in 50% ethanol) to assess plating efficiency. Intensity of crystal violet staining, assessed at 570 nm and quantified using a Vmax Kinetic Microplate Reader and Softmax software (Molecular Devices Corp., Menlo Park, Calif.), were directly proportional to cell number. Data were normalized to vehicle-treated cells and were presented as the mean±SE from representative experiments. SMSMs that are effective were determined for various cells lines.
A-673 cell viability […], splicing (IC50) and brain AUC/Plasma AUC of SMSMs were determined. As shown in the tables below SMSMs had high CNS exposure.
As usually defined, the IC50 is the concentration that inhibits the measured activity by half. Regarding `CN(c1ccc(-c2ccc(-c3ccnc(OC(F)F)c3)cc2O)nn1)[C@H]1C[C@]2(C)CC[C@](C)(C1)N2` [compound 185, 5-(2-(difluoromethoxy)pyridin-4-yl)-2-(6-(((1R,3s,5S)-1,5-dimethyl-8-azabicyclo[3.2.1]octan-3-yl)(methyl)amino)pyridazin-3-yl)phenol], the IC50 was 501 to 1000 nM.

For the molecule `COc1cc(-c2ccc(-c3ccc(N(C)[C@H]4C[C@]5(C)CC[C@](C)(C4)N5)nn3)c(O)c2)cc(F)n1` [compound 189, 2-(6-(((1R,3s,5S)-1,5-dimethyl-8-azabicyclo[3.2.1]octan-3-yl)(methyl)amino)pyridazin-3-yl)-5-(2-fluoro-6-methoxypyridin-4-yl)phenol], the IC50 is 10 to 100 nM.

Take `CN(c1ccc(-c2ccc(-c3cc(O)nc(F)c3)cc2O)nn1)[C@H]1C[C@]2(C)CC[C@](C)(C1)N2` [compound 190, 4-(4-(6-(((1R,3s,5S)-1,5-dimethyl-8-azabicyclo[3.2.1]octan-3-yl)(methyl)amino)pyridazin-3-yl)-3-hydroxyphenyl)-6-fluoropyridin-2-ol]: the IC50 fell in the range of 101 to 250 nM.

Regarding `CN(c1ccc(-c2cc(F)c(-c3ccn(CF)c(=O)c3)cc2O)nn1)[C@H]1C[C@]2(C)CC[C@](C)(C1)N2` [compound 193, 4-(4-(6-(((1R,3s,5S)-1,5-dimethyl-8-azabicyclo[3.2.1]octan-3-yl)(methyl)amino)pyridazin-3-yl)-2-fluoro-5-hydroxyphenyl)-1-(fluoromethyl)pyridin-2(1H)-one], the IC50 is < 10 nM.

On to `CN(c1ccc(-c2ccc(-c3cc(=O)n(C)cn3)cc2O)nn1)[C@H]1C[C@]2(C)CC[C@](C)(C1)N2` [compound 194, 6-(4-(6-(((1R,3s,5S)-1,5-dimethyl-8-azabicyclo[3.2.1]octan-3-yl)(methyl)amino)pyridazin-3-yl)-3-hydroxyphenyl)-3-methylpyrimidin-4(3H)-one], for which the IC50 lay in the range of 10 to 100 nM.

Consider `CN(c1ccc(-c2ccc(-c3cc(C#N)n(C)c3)cc2O)nn1)[C@H]1C[C@]2(C)CC[C@](C)(C1)N2` [compound 195, 4-(4-(6-(((1R,3s,5S)-1,5-dimethyl-8-azabicyclo[3.2.1]octan-3-yl)(methyl)amino)pyridazin-3-yl)-3-hydroxyphenyl)-1-methyl-1H-pyrrole-2-carbonitrile], for which the IC50 is 501 to 1000 nM.

Regarding `CN(c1ccc(-c2ccc(-n3cnc(C#N)c3)cc2O)nn1)[C@H]1C[C@]2(C)CC[C@](C)(C1)N2` [compound 196, 1-(4-(6-(((1R,3s,5S)-1,5-dimethyl-8-azabicyclo[3.2.1]octan-3-yl)(methyl)amino)pyridazin-3-yl)-3-hydroxyphenyl)-1H-imidazole-4-carbonitrile], the IC50 was 251 to 500 nM.

Consider `CN(c1ccc(-c2cc(F)c(-n3cnc(C#N)c3)cc2O)nn1)[C@H]1C[C@]2(C)CC[C@](C)(C1)N2` [compound 197, 1-(4-(6-(((1R,3s,5S)-1,5-dimethyl-8-azabicyclo[3.2.1]octan-3-yl)(methyl)amino)pyridazin-3-yl)-2-fluoro-5-hydroxyphenyl)-1H-imidazole-4-carbonitrile], for which the IC50 was > 1000 nM.

Consider `CN(c1ccc(-c2cc(F)c(-c3cc(=O)n(C)cn3)cc2O)nn1)[C@H]1C[C@]2(C)CC[C@](C)(C1)N2` [compound 198, 6-(4-(6-(((1R,3s,5S)-1,5-dimethyl-8-azabicyclo[3.2.1]octan-3-yl)(methyl)amino)pyridazin-3-yl)-2-fluoro-5-hydroxyphenyl)-3-methylpyrimidin-4(3H)-one], for which the IC50 is < 10 nM.

With `CN(c1ccc(-c2ccc(-c3ccnc(C#N)c3)cc2O)nn1)[C@H]1C[C@]2(C)CC[C@](C)(C1)N2` [compound 199], the IC50 lay within 10 to 100 nM.

`CN(c1ccc(-c2ccc(-n3cc(C#N)cn3)cc2O)nn1)[C@H]1C[C@]2(C)CC[C@](C)(C1)N2` [compound 200, 1-(4-(6-(((1R,3s,5S)-1,5-dimethyl-8-azabicyclo[3.2.1]octan-3-yl)(methyl)amino)pyridazin-3-yl)-3-hydroxyphenyl)-1H-pyrazole-4-carbonitrile]: the IC50 was 101 to 250 nM.

Consider `CCN(c1ccc(-c2ccc(-c3cn[nH]c3)cc2O)nn1)[C@H]1C[C@]2(C)CC[C@](C)(C1)N2` [compound 201, 2-(6-(((1R,3s,5S)-1,5-dimethyl-8-azabicyclo[3.2.1]octan-3-yl)(ethyl)amino)pyridazin-3-yl)-5-(1H-pyrazol-4-yl)phenol], for which the IC50 is 10 to 100 nM.

Consider `CCN(c1ccc(-c2cc(F)c(-c3cn[nH]c3)cc2O)nn1)[C@H]1C[C@]2(C)CC[C@](C)(C1)N2` [compound 202, 2-(6-(((1R,3s,5S)-1,5-dimethyl-8-azabicyclo[3.2.1]octan-3-yl)(ethyl)amino)pyridazin-3-yl)-4-fluoro-5-(1H-pyrazol-4-yl)phenol], for which the IC50 fell in the range of 10 to 100 nM.

On to `CN(c1ccc(-c2ccc(-n3ccc(C#N)c3)cc2O)nn1)[C@H]1C[C@]2(C)CC[C@](C)(C1)N2` [compound 203, 1-(4-(6-(((1R,3s,5S)-1,5-dimethyl-8-azabicyclo[3.2.1]octan-3-yl)(methyl)amino)pyridazin-3-yl)-3-hydroxyphenyl)-1H-pyrrole-3-carbonitrile], for which the IC50 was in the range of 10 to 100 nM.

For `CN(c1ccc(-c2ccc(-c3cc(F)nc(F)c3)cc2O)nn1)[C@H]1C[C@]2(C)CC[C@](C)(C1)N2` [compound 204, 5-(2,6-difluoropyridin-4-yl)-2-(6-(((1R,3s,5S)-1,5-dimethyl-8-azabicyclo[3.2.1]octan-3-yl)(methyl)amino)pyridazin-3-yl)phenol], the IC50 is 100 to 500 nM.

Consider `[2H]C([2H])([2H])Oc1cc(-c2ccc(-c3ccc(N(C)[C@H]4C[C@]5(C)CC[C@](C)(C4)N5)nn3)c(O)c2)cnn1` [compound 205, 2-(6-(((1R,3s,5S)-1,5-dimethyl-8-azabicyclo[3.2.1]octan-3-yl)(methyl)amino)pyridazin-3-yl)-5-(6-(methoxy-d3)pyridazin-4-yl)phenol], for which the IC50 was < 10 nM.

On to `[2H]C([2H])([2H])Oc1cc(-c2cc(O)c(-c3ccc(N(C)[C@H]4C[C@]5(C)CC[C@](C)(C4)N5)nn3)cc2F)cnn1` [compound 206, 2-(6-(((1R,3s,5S)-1,5-dimethyl-8-azabicyclo[3.2.1]octan-3-yl)(methyl)amino)pyridazin-3-yl)-4-fluoro-5-(6-(methoxy-d3)pyridazin-4-yl)phenol], for which the IC50 is < 10 nM.

As to `[2H]C([2H])([2H])Oc1cc(-c2ccc(-c3ccc(N(C)[C@H]4C[C@]5(C)CC[C@](C)(C4)N5)nn3)c(O)c2)cc(F)n1` [compound 207, 2-(6-(((1R,3s,5S)-1,5-dimethyl-8-azabicyclo[3.2.1]octan-3-yl)(methyl)amino)pyridazin-3-yl)-5-(2-fluoro-6-(methoxy-d3)pyridin-4-yl)phenol], the IC50 is 10 to 100 nM.

On to `[2H]C([2H])([2H])Oc1cc(-c2cc(O)c(-c3ccc(N(C)[C@H]4C[C@]5(C)CC[C@](C)(C4)N5)nn3)cc2F)cc(F)n1` [compound 208, 2-(6-(((1R,3s,5S)-1,5-dimethyl-8-azabicyclo[3.2.1]octan-3-yl)(methyl)amino)pyridazin-3-yl)-4-fluoro-5-(2-fluoro-6-(methoxy-d3)pyridin-4-yl)phenol], for which the IC50 is > 1000 nM.

For the molecule `COc1cccc(-c2ccc(-c3ccc(N(C)[C@H]4C[C@]5(C)CC[C@](C)(C4)N5)nn3)c(O)c2)c1` [compound 209, 4-(6-(((1R,3s,5S)-1,5-dimethyl-8-azabicyclo[3.2.1]octan-3-yl)(methyl)amino)pyridazin-3-yl)-3′-methoxy-[1,1′-biphenyl]-3-ol], the IC50 was > 1000 nM.

Take `COc1cc(-c2ccc(-c3ccc(N(C)[C@H]4C[C@]5(C)CC[C@](C)(C4)N5)nn3)c(O)c2)ccc1F` [compound 210, 4-(6-(((1R,3s,5S)-1,5-dimethyl-8-azabicyclo[3.2.1]octan-3-yl)(methyl)amino)pyridazin-3-yl)-4′-fluoro-3′-methoxy-[1,1′-biphenyl]-3-ol]: the IC50 lay within 251 to 500 nM.

With `COc1cncc(-c2ccc(-c3ccc(N(C)[C@H]4C[C@]5(C)CC[C@](C)(C4)N5)nn3)c(O)c2)c1` [compound 211, 2-(6-(((1R,3s,5S)-1,5-dimethyl-8-azabicyclo[3.2.1]octan-3-yl)(methyl)amino)pyridazin-3-yl)-5-(5-methoxypyridin-3-yl)phenol], the IC50 fell in the range of 251 to 500 nM.

Take `COc1cc(-c2cc(O)c(-c3ccc(N(C)[C@H]4C[C@]5(C)CC[C@](C)(C4)N5)nn3)cc2F)cnn1` [compound 213, 2-(6-(((1R,3s,5S)-1,5-dimethyl-8-azabicyclo[3.2.1]octan-3-yl)(methyl)amino)pyridazin-3-yl)-4-fluoro-5-(6-methoxypyridazin-4-yl)phenol]: the IC50 was < 10 nM.

Still in this assay, the particulars now being: Homo sapiens, A673, cell viability, read-out: A-673 IC50 (nM), Cell viability.
Take `Cc1nnnn1-c1ccc(-c2ccc(N(C)[C@@H]3C[C@H]4CC[C@@H](C3)N4)nn2)c(O)c1` [compound 233, 2-(6-(((1R,3s,5S)-8-azabicyclo[3.2.1]octan-3-yl)(methyl)amino)pyridazin-3-yl)-5-(5-methyl-1H-tetrazol-1-yl)phenol]: the IC50 was > 1000 nM.

As for `CN(c1ccc(-c2ccc(-n3cnnc3)cc2O)nn1)[C@@H]1C[C@H]2CC[C@@H](C1)N2` [compound 235, 2-(6-(((1R,3s,5S)-8-azabicyclo[3.2.1]octan-3-yl)(methyl)amino)pyridazin-3-yl)-5-(4H-1,2,4-triazol-4-yl)phenol], the IC50 is > 1000 nM.

As for `Cc1ccc(-c2ccc(-c3ccc(N(C)[C@@H]4C[C@H]5CC[C@@H](C4)N5)nn3)c(O)c2)cn1` [compound 236, 2-(6-(((1R,3s,5S)-8-azabicyclo[3.2.1]octan-3-yl)(methyl)amino)pyridazin-3-yl)-5-(6-methylpyridin-3-yl)phenol], the concentration for half-maximal inhibition (IC50) lay within 101 to 250 nM.

The assay is the same for the next values; noted with them: Homo sapiens, A673, read-out: A-673 cell viability (IC50).
Regarding `CN(c1ccc(-c2cc(F)c(-c3ccn(CF)c(=O)c3)cc2O)nn1)[C@H]1C[C@]2(C)CC[C@](C)(C1)N2` [compound 193, 4-(4-(6-(((1R,3s,5S)-1,5-dimethyl-8-azabicyclo[3.2.1]octan-3-yl)(methyl)amino)pyridazin-3-yl)-2-fluoro-5-hydroxyphenyl)-1-(fluoromethyl)pyridin-2(1H)-one], the IC50 was < 3 nM.
